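48-hour exposure; five concentrations; linearly interpolated endpoints. The concentration for 50% growth inhibition is given as GI50. TGI denotes the concentration required for complete inhibition of growth.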
How the values were obtained:
Assay in all cases: NCI tumour cell line growth inhibition, 48 h
NCI-H522 lung = system: NCI-H522 lung
HOP-62 NSCLC = system: HOP-62 NSCLC
IGROV1 ovarian = system: IGROV1 ovarian
A549 NSCLC = system: A549 NSCLC
SK-MEL-28 melanoma = system: SK-MEL-28 melanoma
SF-295 CNS = system: SF-295 CNS
SK-MEL-5 melanoma = system: SK-MEL-5 melanoma
MDA-MB-435 = system: MDA-MB-435
UACC-257 melanoma = system: UACC-257 melanoma
OVCAR-3 ovarian = system: OVCAR-3 ovarian
HT29 colon = system: HT29 colon
MCF7 breast = system: MCF7 breast
UO-31 renal = system: UO-31 renal
BT-549 breast = system: BT-549 breast
HCC-2998 colon = system: HCC-2998 colon
OVCAR-4 ovarian = system: OVCAR-4 ovarian
COLO 205 colon = system: COLO 205 colon
SF-268 CNS = system: SF-268 CNS
RPMI-8226 leukemia = system: RPMI-8226 leukemia
CCRF-CEM leukemia = system: CCRF-CEM leukemia
ACHN renal = system: ACHN renal
CAKI-1 renal = system: CAKI-1 renal
HCT-15 colon = system: HCT-15 colon
NCI/ADR-RES ovarian = system: NCI/ADR-RES ovarian
EKVX NSCLC = system: EKVX NSCLC
SK-OV-3 ovarian = system: SK-OV-3 ovarian
U251 CNS = system: U251 CNS
K-562 leukemia = system: K-562 leukemia
DU-145 prostate = system: DU-145 prostate
OVCAR-8 ovarian = system: OVCAR-8 ovarian
HS 578T breast = system: HS 578T breast
T-47D breast = system: T-47D breast
SW-620 colon = system: SW-620 colon
SN12C renal = system: SN12C renal
OVCAR-5 ovarian = system: OVCAR-5 ovarian
M14 melanoma = system: M14 melanoma
PC-3 prostate = system: PC-3 prostate
MOLT-4 leukemia = system: MOLT-4 leukemia
UACC-62 melanoma = system: UACC-62 melanoma
HOP-92 NSCLC = system: HOP-92 NSCLC
MDA-MB-231 breast = system: MDA-MB-231 breast
SF-539 CNS = system: SF-539 CNS
HCT-116 colon = system: HCT-116 colon
SK-MEL-2 melanoma = system: SK-MEL-2 melanoma
SNB-75 CNS = system: SNB-75 CNS
MALME-3M melanoma = system: MALME-3M melanoma
NCI-H23 lung = system: NCI-H23 lung
TK-10 renal = system: TK-10 renal
NCI-H226 lung = system: NCI-H226 lung
NCI-H460 lung = system: NCI-H460 lung
786-0 renal = system: 786-0 renal
SNB-19 CNS = system: SNB-19 CNS

N=C(N)c1ccc(COc2ccccc2OCc2ccc(C(=N)N)cc2)cc1
GI50 (NCI-H522 lung): 99.5 µM
TGI (NCI-H522 lung): > 100 µM
GI50 (HOP-62 NSCLC): 18.9 µM
TGI (HOP-62 NSCLC): 48.9 µM
GI50 (IGROV1 ovarian): 61.6 µM
TGI (IGROV1 ovarian): > 100 µM
GI50 (A549 NSCLC): 57.5 µM
TGI (A549 NSCLC): > 100 µM
GI50 (SK-MEL-28 melanoma): 70 µM
TGI (SK-MEL-28 melanoma): > 100 µM
GI50 (SF-295 CNS): 24.1 µM
TGI (SF-295 CNS): 82.4 µM
GI50 (SK-MEL-5 melanoma): 17.1 µM
TGI (SK-MEL-5 melanoma): 44.5 µM
GI50 (MDA-MB-435): 30.2 µM
TGI (MDA-MB-435): > 100 µM
GI50 (UACC-257 melanoma): > 100 µM
TGI (UACC-257 melanoma): > 100 µM
GI50 (OVCAR-3 ovarian): 16.4 µM
TGI (OVCAR-3 ovarian): 53.5 µM
GI50 (HT29 colon): 47 µM
TGI (HT29 colon): > 100 µM
GI50 (MCF7 breast): 46.5 µM
TGI (MCF7 breast): > 100 µM
GI50 (UO-31 renal): > 100 µM
TGI (UO-31 renal): > 100 µM
GI50 (BT-549 breast): 34.8 µM
TGI (BT-549 breast): 76.7 µM
GI50 (HCC-2998 colon): 86.8 µM
TGI (HCC-2998 colon): > 100 µM
GI50 (OVCAR-4 ovarian): 92 µM
TGI (OVCAR-4 ovarian): > 100 µM
GI50 (COLO 205 colon): > 100 µM
TGI (COLO 205 colon): > 100 µM
GI50 (SF-268 CNS): 31.8 µM
TGI (SF-268 CNS): 86 µM
GI50 (RPMI-8226 leukemia): 16.6 µM
TGI (RPMI-8226 leukemia): 99.3 µM
GI50 (CCRF-CEM leukemia): 33.1 µM
TGI (CCRF-CEM leukemia): > 100 µM
GI50 (ACHN renal): > 100 µM
TGI (ACHN renal): > 100 µM
GI50 (CAKI-1 renal): 2.11 µM
TGI (CAKI-1 renal): 29.8 µM
GI50 (HCT-15 colon): 75.6 µM
TGI (HCT-15 colon): > 100 µM
GI50 (NCI/ADR-RES ovarian): > 100 µM
TGI (NCI/ADR-RES ovarian): > 100 µM
GI50 (EKVX NSCLC): 38.5 µM
TGI (EKVX NSCLC): > 100 µM
GI50 (SK-OV-3 ovarian): > 100 µM
TGI (SK-OV-3 ovarian): > 100 µM
GI50 (U251 CNS): 25.6 µM
TGI (U251 CNS): 65.4 µM
GI50 (K-562 leukemia): 34.8 µM
TGI (K-562 leukemia): > 100 µM
GI50 (DU-145 prostate): 18.7 µM
TGI (DU-145 prostate): 45.8 µM
GI50 (OVCAR-8 ovarian): 48.2 µM
TGI (OVCAR-8 ovarian): > 100 µM
GI50 (HS 578T breast): 18.2 µM
TGI (HS 578T breast): 52.6 µM
GI50 (T-47D breast): 58.4 µM
TGI (T-47D breast): > 100 µM
GI50 (SW-620 colon): 43.5 µM
TGI (SW-620 colon): > 100 µM
GI50 (SN12C renal): 6.6 µM
TGI (SN12C renal): 89.3 µM
GI50 (OVCAR-5 ovarian): > 100 µM
TGI (OVCAR-5 ovarian): > 100 µM
GI50 (M14 melanoma): 51.2 µM
TGI (M14 melanoma): > 100 µM
GI50 (PC-3 prostate): 36.3 µM
TGI (PC-3 prostate): > 100 µM
GI50 (MOLT-4 leukemia): 49.6 µM
TGI (MOLT-4 leukemia): > 100 µM
GI50 (UACC-62 melanoma): 34.2 µM
TGI (UACC-62 melanoma): > 100 µM
GI50 (HOP-92 NSCLC): 11.4 µM
TGI (HOP-92 NSCLC): 86.2 µM
GI50 (MDA-MB-231 breast): 32.9 µM
TGI (MDA-MB-231 breast): > 100 µM
GI50 (SF-539 CNS): 14 µM
TGI (SF-539 CNS): 34.6 µM
GI50 (HCT-116 colon): 35.2 µM
TGI (HCT-116 colon): > 100 µM
GI50 (SK-MEL-2 melanoma): > 100 µM
TGI (SK-MEL-2 melanoma): > 100 µM
GI50 (SNB-75 CNS): 73.8 µM
TGI (SNB-75 CNS): > 100 µM
GI50 (MALME-3M melanoma): 19.2 µM
TGI (MALME-3M melanoma): 52.2 µM
GI50 (NCI-H23 lung): 49.4 µM
TGI (NCI-H23 lung): > 100 µM
GI50 (TK-10 renal): 34.3 µM
TGI (TK-10 renal): > 100 µM
GI50 (NCI-H226 lung): 28.6 µM
TGI (NCI-H226 lung): 81 µM
GI50 (NCI-H460 lung): 20.9 µM
TGI (NCI-H460 lung): > 100 µM
GI50 (786-0 renal): 29.8 µM
TGI (786-0 renal): > 100 µM
GI50 (SNB-19 CNS): 41.4 µM
TGI (SNB-19 CNS): > 100 µM

Source: PubChem BioAssay (NCI)
